The supplement of paper PMC10307832

Compound: CC1=CN=C(N=C1C2=CNC(=C2)C(=O)N[C@H](CO)C3=CC(=CC=C3)Cl)NC4=C(C=C(C=C4)F)Cl [VX-11e] + CC(C)C[C@H](NC(=O)[C@H](Cc1ccccc1)NC(=O)c1cnccn1)B(O)O [Bortezomib] (partner 0.002 µM)
Test: relative viability (nuclei count vs DMSO), 5 days (fraction); higher = more cells survive
Procedure, shortened: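 After 5 days of treatment, lung cancer cells in 1536-well plates were fixed and stained in a single step (final 0.05% Triton X-100, 1% formaldehyde, 1 ug/ml Hoechst) and their nuclei counted on 4× images. Treatment had been applied by pin tool the day after seeding as one drug alone or as a fixed anchor-drug dose with five library-drug doses (not always all listed) in √10 steps. Relative viability is the nuclei count of treated wells divided by that of vehicle wells, and values are medians of duplicate plates.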

Cell Line | relative viability (first compound 0.04 µM) | relative viability (first compound 0.1265 µM) | relative viability (first compound 0.4 µM) | relative viability (first compound 1.265 µM) | relative viability (first compound 4 µM)
HARA | 0.992 | 1.08 | 1.13 | 0.507 | 0.803
H3255 | 0.709 | 0.857 | 0.657 | 0.612 | 0.64
UMC-11 | 0.562 | 0.668 | 0.714 | 0.598 | 0.551
EMC-BAC-2 | 1.04 | 1.01 | 1.14 | 1.02 | 0.858
NCI-H3122 | 1.11 | 1.03 | 0.743 | 0.832 | 0.676
EPLC-272H | 0.94 | 0.799 | 0.841 | 0.839 | 0.665
LU99A | 0.965 | 0.984 | 0.769 | 0.284 | 0.239
LXF-289 | 1.07 | 0.96 | 0.764 | 0.734 | 0.665
NCI-H647 | 0.892 | 0.964 | 0.584 | 0.491 | 0.477
201T | 1.05 | 1.11 | 1.12 | 1.02 | 1.03
NCI-H441 | 0.54 | 0.436 | – | 0.963 | 0.432
NCI-H1734 | 0.965 | 0.826 | 0.726 | 0.513 | 0.365
NCI-H1792 | 1.01 | 0.912 | 0.94 | 0.876 | 0.686
NCI-H23 | 0.911 | 0.81 | 0.25 | 0.935 | 0.367
NCI-H2405 | 1.04 | 0.953 | 0.988 | 0.952 | 0.601
RERF-LC-KJ | 1 | 1.04 | – | 1.03 | 0.894
PC-14 | 0.967 | 0.798 | 0.818 | 0.869 | 0.527
NCI-H661 | 0.791 | 0.899 | 0.819 | 0.683 | 0.583
EKVX | 1.06 | 0.977 | 0.951 | 1 | 0.406
PC-3 [JPC-3] | 0.91 | 0.828 | 0.803 | 0.993 | 0.719
NCI-H1355 | 1.01 | 1.17 | 0.614 | 1.11 | 0.763
ChaGo-K-1 | 1.01 | – | 1.11 | 0.759 | 0.772
NCI-H2023 | 0.993 | 1.03 | 0.098 | 0.394 | 0.418

Cell Line | relative viability (first compound 0.04 µM) | relative viability (first compound 0.1265 µM) | relative viability (first compound 0.4 µM) | relative viability (first compound 1.265 µM) | relative viability (first compound 4 µM)
SK-LU-1 | 1.01 | 0.718 | – | 0.895 | 0.452
NCI-H1563 | 0.884 | 0.734 | 0.637 | 0.739 | 0.747
LCLC-97TM1 | 0.591 | 0.675 | 0.943 | 0.339 | 0.107
NCI-H596 | 0.953 | 1 | 0.989 | 0.645 | 0.715
NCI-H2126 | – | 1.06 | 1.01 | 1.14 | 1.02
BEN | 0.543 | 0.779 | 0.942 | 0.533 | 0.725
LCLC-103H | 1.07 | 1.11 | 1.03 | 0.658 | 0.917
Calu-6 | 1.08 | 1.04 | 1.03 | 0.333 | 0.206
NCI-H1651 | 0.946 | 0.879 | 0.921 | 0.922 | 0.871
NCI-H1993 | – | 1.04 | – | 0.742 | 0.765
NCI-H1975 | 0.475 | 0.372 | 0.301 | 0.281 | 0.178
NCI-H727 | 0.686 | 0.68 | 0.519 | 0.513 | 0.29
LC-2-ad | 1.13 | 0.962 | 0.894 | 0.403 | 0.841
NCI-H2085 | 1.04 | 0.979 | 1.03 | 0.898 | 0.825
NCI-H2347 | 0.87 | 0.801 | 0.815 | 0.738 | 0.435
NCI-H1299 | 0.987 | 0.978 | 0.978 | 1.05 | 0.556
NCI-H1650 | 0.192 | 0.198 | 0.235 | 0.199 | 0.195
HCC-78 | 0.565 | 0.491 | 0.505 | 0.227 | 0.441
SW 1573 | 0.812 | 0.854 | 1.02 | 0.826 | 0.64
IA-LM | 0.959 | 0.941 | 0.927 | 0.306 | 0.105
NCI-H1703 | 0.473 | 0.414 | 0.258 | 0.35 | 0.21
NCI-H1437 | 0.597 | 0.316 | 0.306 | 0.312 | 0.202
HOP-62 | 0.688 | 0.963 | 0.553 | 0.214 | 0.515

Cell Line | relative viability (first compound 0.04 µM) | relative viability (first compound 0.1265 µM) | relative viability (first compound 0.4 µM) | relative viability (first compound 1.265 µM) | relative viability (first compound 4 µM)
HCC-15 | 1.1 | 1.07 | 0.754 | 0.794 | 0.428
HCC-44 | 0.913 | 0.912 | 0.857 | 0.646 | 0.453
NCI-H520 | 0.621 | 0.49 | 0.636 | 0.486 | 0.474
NCI-H322M | 1.08 | – | 1.24 | 1.09 | 0.987
NCI-H2009 | 1.08 | 0.944 | 0.797 | 0.254 | 0.201
CAL-12T | – | – | 0.91 | 0.715 | 0.509
ABC-1 | 0.268 | 0.246 | 0.262 | 0.263 | 0.263
A-427 | 1.11 | 0.955 | 1.06 | 1.04 | 0.479
LOU-NH91 | 0.494 | 0.502 | – | 0.486 | 0.457
HCC-366 | 0.959 | 0.895 | – | 0.864 | 0.759
NCI-H838 | 0.985 | 0.703 | 0.608 | 0.527 | 0.515
NCI-H650 | – | 0.692 | 1.23 | – | 0.87
NCI-H1666 | 0.877 | 0.862 | 0.627 | 0.678 | 0.505
NCI-H1915 | 1.02 | 0.923 | 1.03 | 0.939 | 0.757
NCI-H2087 | 0.863 | 0.639 | 0.582 | 0.921 | 0.287
COR-L23 | 1.29 | 0.967 | 1.12 | 0.667 | 0.348
NCI-H1755 | 0.965 | 0.931 | 0.884 | 0.923 | 0.608
NCI-H460 | 1.15 | 0.986 | 0.91 | 0.648 | 0.102
COR-L 105 | 0.814 | 0.826 | 0.6 | 0.338 | 0.226
HCC-827 | 1.11 | 1.1 | 1.09 | 1.2 | 1.02
NCI-H2228 | 1.18 | 1.18 | 0.221 | 0.681 | 0.284
